According to patent publication US20170334899A1, “AMINO-SUBSTITUTED ISOTHIAZOLES” (Bayer Pharma Aktiengesellschaft, priority 2014, published 2017):

How the values were obtained:
[1] = tested on: human cervical tumor cell line HeLa (ATCC CCL-2); assay: SAC-Formation - Nocodazole-Induced Assay; format: cell-based; details: Homo sapiens, HeLa, 24 h, HeLa cells, nocodazole 0.1 μg/ml together with test compound, decrease of mitotic cells (phospho-histone H3 Ser10)
In short: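 Loss of phospho-histone H3 Ser10-positive cells, counted against Hoechst-stained nuclei by high-content imaging, marked mitotic breakthrough. Compounds (0.005–20 μM, 0.5% DMSO) were co-dosed with 0.1 μg/ml nocodazole onto HeLa cells for 24 h at 37 °C. Curves were fitted with a four-parameter Hill equation.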

[2] = molecular target: T1, catalytic domain of human Bub1 (amino acids 704-1085) (Homo sapiens, UniProt O43683); assay: Bub1 kinase assay (TR-FRET); format: biochemical; details: 10 μM ATP, avg, read-out: Bub1 avg (IC50 [mol/l])
T1 construct: catalytic domain of human Bub1 (amino acids 704-1085); His6 (N); made in house; host or cells: insect cells (Hi5)
In short: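 Readout is the 665/620 nm TR-FRET ratio from anti-phosphoserine antibody, Eu-labelled anti-mouse IgG and streptavidin-XL665, scaled between no-enzyme and uninhibited controls. Reaction: 1 μM biotinylated peptide, 10 μM ATP, 60 min, 22 °C, after 15 min compound preincubation with His6-Bub1 (704-1085, insect-expressed, ~200 ng/ml).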

T1 sequence (O43683 704-1085): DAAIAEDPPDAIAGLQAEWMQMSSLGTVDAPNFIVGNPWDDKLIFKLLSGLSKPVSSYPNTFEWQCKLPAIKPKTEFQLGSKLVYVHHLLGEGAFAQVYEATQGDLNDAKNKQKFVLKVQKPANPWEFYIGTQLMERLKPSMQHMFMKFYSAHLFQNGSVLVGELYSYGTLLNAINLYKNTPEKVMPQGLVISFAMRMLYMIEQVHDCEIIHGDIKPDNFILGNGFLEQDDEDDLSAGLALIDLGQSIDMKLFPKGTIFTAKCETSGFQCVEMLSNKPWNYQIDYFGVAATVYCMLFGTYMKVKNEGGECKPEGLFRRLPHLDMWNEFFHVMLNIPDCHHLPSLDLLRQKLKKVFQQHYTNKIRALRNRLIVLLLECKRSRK

Row | Structure (SMILES) | IC50 [1] | IC50 [2]
1 | Cc1nsc(Nc2cnc(C(F)(F)F)cn2)c1C(=O)Nc1ccc(F)c(OC[C@H]2CCN(CC(F)(F)F)C2)c1 [Example 398, N-(4-fluoro-3-{[(3S)-1-(2,2,2-trifluoroethyl)pyrrolidin-3-yl]methoxy}phenyl)-3-methyl-5-{[5-(trifluoromethyl)pyrazin-2-yl]amino}-1,2-thiazole-4-carboxamide] | 0.028 µM | > 20 µM
2 | Cc1nsc(Nc2cnc(C(F)(F)F)cn2)c1C(=O)Nc1ccc(OCC2CCCN(CC(F)F)C2)nc1 (stereo not drawn) [Example 327, N-(6-{[1-(2,2-difluoroethyl)piperidin-3-yl]methoxy}pyridin-3-yl)-3-methyl-5-{[5-(trifluoromethyl)pyrazin-2-yl]amino}-1,2-thiazole-4-carboxamide] | 0.0063 µM | ≥ 20 µM
3 | Cc1nsc(Nc2cc(C#N)ccn2)c1C(=O)Nc1ccc(OC2CCCN(C(=O)OC(C)(C)C)C2)nc1 (stereo not drawn) [Example 34, tert-Butyl 3({5-[({5-[(4-cyanopyridin-2-yl)amino]-3-methyl-1,2-thiazol-4-yl}-carbonyl)amino]pyridin-2-yl}oxy)piperidine-1-carboxylate] | 0.28 µM | ≥ 20 µM
4 | Cc1nsc(Nc2cnc(C(F)(F)F)cn2)c1C(=O)Nc1ccc(F)c(OC[C@@H]2CCN(CC(F)(F)F)C2)c1 [Example 339, N-(4-fluoro-3-{[(3R)-1-(2,2,2-trifluoroethyl)pyrrolidin-3-yl]methoxy}phenyl)-3-methyl-5-{[5-(trifluoromethyl)pyrazin-2-yl]amino}-1,2-thiazole-4-carboxamide] | 0.04 µM | > 20 µM
5 | CCCCN1CCC(COc2ccc(NC(=O)c3c(C)nsc3Nc3cnc(C(F)(F)F)cn3)cn2)C(F)(F)C1 (stereo not drawn) [Example 396, N-{6-[(1-butyl-3,3-difluoropiperidin-4-yl)methoxy]pyridin-3-yl}-3-methyl-5-{[5-(trifluoromethyl)pyrazin-2-yl]amino}-1,2-thiazole-4-carboxamide] | 0.014 µM | > 20 µM
6 | Cc1nsc(Nc2cnc(C(F)(F)F)cn2)c1C(=O)Nc1ccc(OCCNCCC(F)(F)F)nc1 [Example 323, 3-methyl-5-{[5-(trifluoromethyl)pyrazin-2-yl]amino}-N-(6-{2-[(3,3,3-trifluoropropyl)amino]ethoxy}pyridin-3-yl)-1,2-thiazole-4-carboxamide] | 0.03 µM | 18 µM
7 | Cc1nsc(Nc2cnc(C(F)(F)F)cn2)c1C(=O)Nc1ccc(OC2CCCN(CCF)C2)nc1 (stereo not drawn) [Example 329, N-(6-{[1-(2-fluoroethyl)piperidin-3-yl]oxy}pyridin-3-yl)-3-methyl-5-{[5-(trifluoromethyl)pyrazin-2-yl]amino}-1,2-thiazole-4-carboxamide] | 0.035 µM | ≥ 20 µM
8 | Cc1nsc(Nc2cnc(C(F)(F)F)cn2)c1C(=O)Nc1ccc(O[C@H]2CCN(CC(F)F)C[C@@H]2F)nc1 [Example 362] | 0.0023 µM | 14 µM
9 | Cc1nsc(Nc2cncc(C(F)(F)F)n2)c1C(=O)Nc1ccc(F)c(OC2CCN(CCC(F)(F)F)CC2)c1 [Example 343, N-(4-fluoro-3-{[1-(3,3,3-trifluoropropyl)piperidin-4-yl]oxy}phenyl)-3-methyl-5-{[6-(trifluoromethyl)pyrazin-2-yl]amino}-1,2-thiazole-4-carboxamide] | 0.21 µM | ≥ 20 µM
10 | Cc1nsc(Nc2cnc(C(F)(F)F)cn2)c1C(=O)Nc1ccc(F)c(OCC2CCCN(CCC(F)(F)F)C2)c1 (stereo not drawn) [Example 338, N-(4-fluoro-3-{[1-(3,3,3-trifluoropropyl)piperidin-3-yl]methoxy}phenyl)-3-methyl-5-{[5-(trifluoromethyl)pyrazin-2-yl]amino}-1,2-thiazole-4-carboxamide] | 0.027 µM | ≥ 20 µM
11 | Cc1nsc(Nc2cnc(C(F)(F)F)cn2)c1C(=O)Nc1ccc(F)c(OC[C@H]2CCN(CCC(F)(F)F)C2)c1 [Example 399, N-(4-fluoro-3-{[(3S)-1-(3,3,3-trifluoropropyl)pyrrolidin-3-yl]methoxy}phenyl)-3-methyl-5-{[5-(trifluoromethyl)pyrazin-2-yl]amino}-1,2-thiazole-4-carboxamide] | 0.029 µM | > 20 µM
12 | Cc1nsc(Nc2cnc(C(F)(F)F)cn2)c1C(=O)Nc1ccc(OC2CCCN(CCC(F)(F)F)C2)nc1 (stereo not drawn) [Example 332, 3-methyl-5-{[5-(trifluoromethyl)pyrazin-2-yl]amino}-N-(6-{[1-(3,3,3-trifluoropropyl)piperidin-3-yl]oxy}pyridin-3-yl)-1,2-thiazole-4-carboxamide] | 0.0071 µM | ≥ 20 µM
13 | Cc1nsc(Nc2cnc(C(F)(F)F)cn2)c1C(=O)Nc1ccc(O[C@@H]2CCN(CC(F)F)C2)nc1 [Example 379, N-(6-{[(3R)-1-(2,2-difluoroethyl)pyrrolidin-3-yl]oxy}pyridin-3-yl)-3-methyl-5-{[5-(trifluoromethyl)pyrazin-2-yl]amino}-1,2-thiazole-4-carboxamide] | 0.034 µM | ≥ 20 µM
14 | Cc1nsc(Nc2cnc3ccccc3n2)c1C(=O)Nc1ccc(OC2CCCN(CC(F)F)C2)nc1 (stereo not drawn) [Example 33, N-(6-{[1-(2,2-Difluoroethyl)piperidin-3-yl]oxy}pyridin-3-yl)-3-methyl-5-(quinoxalin-2-ylamino)-1,2-thiazole-4-carboxamide] | 1.4 µM | ≥ 20 µM
15 | Cc1nsc(Nc2cnc(C(F)(F)F)cn2)c1C(=O)Nc1ccc(F)c(OCC2CCCN(CC(F)F)C2)c1 (stereo not drawn) [Example 334, N-(3-{[1-(2,2-difluoroethyl)piperidin-3-yl]methoxy}-4-fluorophenyl)-3-methyl-5-{[5-(trifluoromethyl)pyrazin-2-yl]amino}-1,2-thiazole-4-carboxamide] | 0.047 µM | ≥ 20 µM
16 | Cc1nsc(Nc2cnc(C(F)(F)F)cn2)c1C(=O)Nc1ccc(OC[C@@H]2CCCN(CC(F)F)C2)nc1 [Example 375, N-(6-{[(3R)-1-(2,2-difluoroethyl)piperidin-3-yl]methoxy}pyridin-3-yl)-3-methyl-5-{[5-(trifluoromethyl)pyrazin-2-yl]amino}-1,2-thiazole-4-carboxamide] | 0.04 µM | > 20 µM
17 | Cc1nsc(Nc2cnc(C(F)(F)F)cn2)c1C(=O)Nc1ccc(F)c(OC[C@@H]2CCCN(CCC(F)(F)F)C2)c1 [Example 395, N-(4-fluoro-3-{[(3R)-1-(3,3,3-trifluoropropyl)piperidin-3-yl]methoxy}phenyl)-3-methyl-5-{[5-(trifluoromethyl)pyrazin-2-yl]amino}-1,2-thiazole-4-carboxamide] | 0.035 µM | > 20 µM
18 | Cc1nsc(Nc2cnc(C(F)(F)F)cn2)c1C(=O)Nc1ccc(N2CCN(CCC(F)(F)F)CC2)nc1 [Example 361, 3-methyl-5-{[5-(trifluoromethyl)pyrazin-2-yl]amino}-N-{6-[4-(3,3,3-trifluoropropyl)piperazin-1-yl]pyridin-3-yl}-1,2-thiazole-4-carboxamide] | 0.068 µM | > 20 µM
19 | CCN1CC[C@H](Oc2ccc(NC(=O)c3c(C)nsc3Nc3cnc(C(F)(F)F)cn3)cn2)[C@@H](F)C1 [Example 365, N-(6-{[(3S,4S)-1-ethyl-3-fluoropiperidin-4-yl]oxy}pyridin-3-yl)-3-methyl-5-{[5-(trifluoromethyl)pyrazin-2-yl]amino}-1,2-thiazole-4-carboxamide] | 0.034 µM | 16 µM
20 | Cc1nsc(Nc2cnc(C(F)(F)F)cn2)c1C(=O)Nc1ccc(O[C@H]2CCN(CC(F)(F)F)C[C@@H]2F)nc1 [Example 363, N-(6-{[(3S,4S)-3-fluoro-1-(2,2,2-trifluoroethyl)piperidin-4-yl]oxy}pyridin-3-yl)-3-methyl-5-{[5-(trifluoromethyl)pyrazin-2-yl]amino}-1,2-thiazole-4-carboxamide] | 0.11 µM | > 20 µM
21 | Cc1nsc(Nc2cnc(C(F)(F)F)cn2)c1C(=O)Nc1ccc(F)c(OCC2CCCN(CC(F)(F)F)C2)c1 (stereo not drawn) [Example 337, N-(4-fluoro-3-{[1-(2,2,2-trifluoroethyl)piperidin-3-yl]methoxy}phenyl)-3-methyl-5-{[5-(trifluoromethyl)pyrazin-2-yl]amino}-1,2-thiazole-4-carboxamide] | 0.061 µM | ≥ 20 µM
22 | Cc1nsc(Nc2cnc(C(F)(F)F)cn2)c1C(=O)Nc1ccc(OCC2CCN(CC(F)F)CC2)nc1 [Example 345, N-(6-{[1-(2,2-difluoroethyl)piperidin-4-yl]methoxy}pyridin-3-yl)-3-methyl-5-{[5-(trifluoromethyl)pyrazin-2-yl]amino}-1,2-thiazole-4-carboxamide] | 0.028 µM | ≥ 20 µM
23 | Cc1nsc(Nc2cnc(C(F)(F)F)cn2)c1C(=O)Nc1ccc(O[C@@H]2CCN(CC(F)(F)F)C2)nc1 [Example 380, 3-methyl-N-(6-{[(3R)-1-(2,2,2-trifluoroethyl)pyrrolidin-3-yl]oxy}pyridin-3-yl)-5-{[5-(trifluoromethyl)pyrazin-2-yl]amino}-1,2-thiazole-4-carboxamide] | 0.34 µM | > 20 µM
24 | Cc1nsc(Nc2cnc(C(F)(F)F)cn2)c1C(=O)Nc1ccc(OCC2CCN(CC(F)(F)F)CC2)nc1 [Example 346, 3-methyl-N-(6-{[1-(2,2,2-trifluoroethyl)piperidin-4-yl]methoxy}pyridin-3-yl)-5-{[5-(trifluoromethyl)pyrazin-2-yl]amino}-1,2-thiazole-4-carboxamide] | 0.033 µM | ≥ 20 µM
